Patent US4857652A, “Chemiluminescent 1,2-dioxetane compounds” (priority 1988, dated 1989)
Read-outs that look alike come from different tables or passages of the source.

Columns and labels:
[1] = format: physicochemical; details: for base-induced decomposition, chemiluminescence: room temperature
Protocol: (§1) A solution of the dioxetane in a suitable solvent (e.g. o-xylene) was placed in the reaction vial as described above. The vial was placed in the sample holder which was maintained at a temperature such that thermal decomposition of the dioxetane was negligible. Instrument parameters were selected as above and data collection started. A solution of the releasing agent (e.g. base or fluoride) preferably in the reaction solvent was injected by syringe into the rapidly stirred dioxetane solution. The volume of releasing agent added was generally less than 5% of the total volume so that temperature fluctuation of the sample during the time course of the decay was minimal. The pseudo-first order decay was monitored for at least three half-lives.
1. Triggering the Chemiluminescence of Hydroxy-Substituted Dioxetanes with Base: Potassium tert-butoxide induced decomposition of 2b. […].

[2] = format: physicochemical; details: 0.002M in 2-methoxyethanol, stored at 0° C.
Protocol: (§2) A secondary stock solution of the acetate-protected dioxetane 2e was made by evaporating an aliquot of the methylene chloride stock equivalent to 10 micromoles of dioxetane and dissolving in 5.0 mL of 2-methoxyethanol to give a final concentration of 0.002M. […] Buffer solutions prepared in distilled water were 0.05M phosphate pH 7.6 and 8.0, 0.02M Tris (tris-hydroxymethylaninomethane maleate) pH 7.6, and pH 9.0 phosphate/borate buffer. Aryl esterase (also called carboxylic ester hydrolase (P-5221)) from porcine liver was purchased from Sigma Chemical Co. as a suspension of 11 mg of protein per mL in 3.2M (NH4)2 SO4 solution pH 8.0. Each mg of protein is equivalent to 260 Units, where 1 Unit is defined as the amount which will hydrolyze 1 micromole of ethyl butyrate in 1 minute at pH 8.0, 25° C. […] Injection of 1 μL of […] of aryl esterase to the stirred solution caused a chemiluminescent signal to appear. The intensity reached a maximum at about 3 minutes and decayed over a 30 minute period.

[3] = tested on: Aryl esterase (carboxylic ester hydrolase) from porcine liver; assay: Enzymatic triggering of chemiluminescence with aryl esterase; format: biochemical; details: for effect of competing substrate on light intensity of 2e/esterase reaction: 10 μL of […] added at maximum emission, pH 7.6 phosphate buffer, 37° C.; for hydrolysis by the enzyme (UV spectroscopy): under the reaction conditions
Protocol: as §2
(3.) When distilled water was substituted for the Tris buffer, no chemiluminescence signal was observed, but on adding Tris buffer to this solution light emission similar to that above was produced. […] Addition of untreated enzyme preparation to this solution again produced light. […] The emission could be totally extinguished by addition of sufficient SDS. The decrease in light emission is not due to photophysical quenching of the excited state since thermal decomposition in the same solvent system at elevated temperatures results in readily detectable chemiluminescence.
This type of behavior explains the effect of the addition of the known esterase substrates α-naphthyl acetate and β-naphthyl acetate. […] A solution of 25 μL of the dioxetane stock (0.002M) in 3 mL of pH 7.6 phosphate buffer maintained at 37° C. was treated with 5 μL of the enzyme to initiate the chemiluminescence. At the point of maximum emission 10 μL of 0.011M solution of either α- or β-naphthyl acetate were added.

[4] = Stability of dioxetane in aqueous buffers (IMAX with delay before the enzyme was added); format: physicochemical
Protocol: Stability of Enzyme and Dioxetane to Reaction Conditions. Many dioxetanes are known to be destroyed via a non-luminescent pathway by acid catalyzed processes in aprotic solvents. Similarly, amines are also known to cause the catalytic destruction of dioxetanes via an electron-transfer process. The stability of the dioxetane to the aqueous buffers used in the enzyme reactions, especially Tris buffer, was a matter of concern. A series of experiments were performed to assess the stability of the dioxetane in these buffers over the expected time course of a typical run. A comparison was made between the maximum light intensity produced for a given buffer and temperature with delays of 0 and 30 minutes before the enzyme was added. If the dioxetane were decomposing in the buffer then IMAX of the run where the dioxetane was exposed to the buffer for 30 minutes would be lower provided the enzyme is not saturated. […] In 0.05M phosphate buffer, pH 7.6 at 25° C. and 37 ° C. the percent decrease in IMAX due to the 30 minute delay was, respectively, 0 and 7% while in 0.02M Tris buffer, pH 7.6 at 25° C. a 12% decrease was found and at 37° C. after a delay of one hour a 34% decrease occurred.

[5] = format: physicochemical; details: for Ea (activation energy for decomposition) / k at 25° C.: in xylene
Protocol: Rates of dioxetane decomposition were monitored by the decay of chemiluminescence of aerated solutions. A cylindrical Pyrex vial equipped with magnet stir bar was filled with 3-4 mL of the reaction solvent, sealed with a Teflon-lined screw cap and placed in the thermostatted sample block of the chemiluminescence-measuring apparatus (Black Box). Temperature control was provided by an external circulating water bath. Appropriate values for the instrument gain and optical slit size were selected. […]. The vial was sealed with a Teflon-lined screw cap to prevent evaporation when high temperatures were used. Measurement of the signal was begun by opening the shutter. The chemiluminescent decay was generally recorded for at least three half-lives. Calculation of the first-order rate constant, k, from the In(Intensity) vs. time data was performed by a computer program utilizing a standard least-squares treatment. The correlation coefficient, r, was typically at least 0.999 and varied less than 5% between replicate samples. The observed rate was not measurably concentration dependent.
Activation parameters for decomposition of the dioxetanes were calculated from plots of In k.vs. 1/T (Arrhenius eq.) or In k/t vs. 1/T (Eyring eq.) by a standard least-squares linear regression analysis.

[6] = molecular target: T1, Acetylcholinesterase from human erythrocytes (Homo sapiens, UniProt P22303); assay: Enzymatic triggering of chemiluminescence with acetylcholinesterase; format: biochemical; details: 10 μL stock in 3 mL 0.05M phosphate buffer pH 8.0, 37.0° C.
T1 construct: purchased Sigma Chemical Co. C-3389; host or cells: human erythrocytes
T1 sequence (P22303 other isoform, or with tags, fused parts or gaps): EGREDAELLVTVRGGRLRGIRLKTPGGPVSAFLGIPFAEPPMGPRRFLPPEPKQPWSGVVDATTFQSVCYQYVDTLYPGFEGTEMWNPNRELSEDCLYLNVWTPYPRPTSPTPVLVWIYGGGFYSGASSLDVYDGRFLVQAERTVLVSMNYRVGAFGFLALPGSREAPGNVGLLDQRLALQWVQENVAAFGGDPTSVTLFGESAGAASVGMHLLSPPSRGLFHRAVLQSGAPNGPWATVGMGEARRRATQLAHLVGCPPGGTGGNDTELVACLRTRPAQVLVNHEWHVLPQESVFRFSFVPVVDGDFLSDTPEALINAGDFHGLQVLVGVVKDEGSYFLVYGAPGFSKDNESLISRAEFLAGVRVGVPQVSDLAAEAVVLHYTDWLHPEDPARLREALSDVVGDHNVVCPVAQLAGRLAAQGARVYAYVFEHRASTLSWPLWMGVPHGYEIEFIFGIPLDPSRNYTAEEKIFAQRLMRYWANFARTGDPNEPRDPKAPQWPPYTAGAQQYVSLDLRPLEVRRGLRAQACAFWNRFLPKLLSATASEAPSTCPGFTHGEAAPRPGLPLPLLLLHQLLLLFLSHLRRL
Source text: Acetylcholinesterase, an enzyme of considerable biological significance, hydrolyzes acetylcholine to choline and acetic acid under physiological conditions. It was of interest to determine whether this enzyme would also initiate the chemiluminescent decomposition of the acetyl-protected dioxetane 2e by removal of the acetyl group. Acetylcholinesterase (C-3389) from human erythrocytes was purchased from Sigma Chemical Co. as a lyophilized powder containing phosphate buffer salts. […]. Addition of more dioxetane during this period generated more light.

[7] = format: physicochemical
Protocol: as §1
2. Triggering the Chemiluminescence of Silyloxy-Substituted Dioxetanes with Fluoride Ion: Fluoride ion induced decomposition of 2c. […]. […]. A spectrum of the chemiluminescence obtained from the fluoride triggering of 2c in 1:1 aqueous/2-methoxyethanol is shown in FIG. 1 with the solid line. The fluorescence of the cleavage product (methyl 6-hydroxy-2-naphthoate) from the dioxetane is also shown with the dashed line for comparison.

[8] = Triggering properties of further dioxetanes (general statement); format: physicochemical
Protocol: as §1

[9] = 0.3 μmol dioxetane, 0.26 units aryl esterase, pH 7.6 Tris buffer, 25° C.
[10] = polar aprotic solvents such as acetonitrile
[11] = compared with dioxetanes 2a-c and 2e

## COC1(c2cccc(O)c2)OOC12C1CC3CC(C1)CC2C3 (centres unmarked) [Dioxetane 8a]
[1]
  base-induced decomposition, chemiluminescence: produced chemiluminescence at room temperature

## COC1(c2ccc3cc(OC(C)=O)ccc3c2)OOC12C1CC3CC(C1)CC2C3 (centres unmarked) [Dioxetane 2e, 4-(6-Acetoxy-2-naphthyl)-4-methoxyspiro[1,2-dioxetane-3,2'-adamantane]]
[2]
  stability of stock solution: stable indefinitely
[3]; [9]
  period of decay of chemiluminescence: 30 min
  time at which intensity reached a maximum: about 3 minutes
[3]; 1 μL enzyme, Tris buffer, 25°, 37° and 50° C.
  maximum light intensity, IMAX, versus temperature: increased with increasing temperature
[3]; 150 μL stock in 3.0 mL pH 7.6 Tris buffer, 25° C., before enzyme
  chemiluminescence signal without enzyme: no chemiluminescence signal was detected
[4]; 0.02M Tris buffer pH 7.6, 25° C., 30 minute delay
  percent decrease in IMAX due to delay: 12%
[4]; 0.02M Tris buffer pH 7.6, 37° C., delay of one hour
  percent decrease in IMAX due to delay: 34%
[4]; 0.05M phosphate buffer pH 7.6, 25° C., 30 minute delay
  percent decrease in IMAX due to delay: 0%
[4]; 0.05M phosphate buffer pH 7.6, 37° C., 30 minute delay
  percent decrease in IMAX due to delay: 7%
[5]; aliquot in 3 mL o-xylene at 95° C.
  persistence of thermal chemiluminescence: persisted for several hours
[6]
  duration of light emission: 20 s

## COC1(c2cccc(O[Si](C)(C)C(C)(C)C)c2)OOC12C1CC3CC(C1)CC2C3 (centres unmarked) [Dioxetane 8b, 4-(3-tert-Butyldimethylsilyloxyphenyl)-4-methoxyspiro[1,2-dioxetane-3,2'-adamantane]]
[7]; [10]
  chemiluminescence in polar aprotic solvents: bright chemiluminescence

## CC(C)(C)[Si](C)(C)Oc1ccc2c(c1)C1(OOC13C1CC4CC(C1)CC3C4)c1ccccc1-2 (centres unmarked) [Dioxetane 4b, Dispiro[adamantane-2,3'-[1,2]dioxetane-4',9"-(2-tert-butyldimethylsilyloxy-9-fluorene)]]
[7]; [10]
  chemiluminescence in polar aprotic solvents: bright chemiluminescence

## CC(=O)Oc1cccc2ccccc12 [α-naphthyl acetate]
[3]
  effect of competing substrate on light intensity of 2e/esterase reaction: rapid decrease in light intensity was noted followed by restoration of the original intensity within less than one minute
  hydrolysis by the enzyme (UV spectroscopy): hydrolyzed by the enzyme in seconds

## Oc1ccc2c(c1)C1(OOC13C1CC4CC(C1)CC3C4)c1ccccc1-2 (centres unmarked) [Dioxetane 4a]
[8]; [11]
  triggering properties: triggering properties similar to dioxetanes 2a-c and 2e
[1]
  base-induced decomposition, chemiluminescence: produced chemiluminescence at room temperature

## CC(=O)Oc1ccc2c(c1)Oc1ccccc1C21OOC12C1CC3CC(C1)CC2C3 (centres unmarked) [Dioxetane 6c]
[8]; [11]
  triggering properties: triggering properties similar to dioxetanes 2a-c and 2e

## COC1(c2ccc3cc(O[Si](C)(C)C(C)(C)C)ccc3c2)OOC12C1CC3CC(C1)CC2C3 (centres unmarked) [Dioxetane 2c]
[5]; 25° C., no fluoride
  half-life of decomposition in the absence of fluoride ion: 2.5 years
[5]
  Ea (activation energy for decomposition): 27.0
[5]; 25° C.
  k at 25° C.: 8.72e-09 s⁻¹
[7]; 10^-4 M in 0.01M tetrabutylammonium fluoride in 2-methoxyethanol, room temperature, 100 µM
  half-life of chemiluminescence decay, fluoride triggered: about 20 minutes

## COC1(c2ccc3cc(O)ccc3c2)OOC12C1CC3CC(C1)CC2C3 (centres unmarked) [Dioxetane 2b, 4-(6-Hydroxy-2-naphthyl)-4-methoxyspiro[1,2-dioxetane-3,2'-adamantane]]
[5]
  Ea (activation energy for decomposition): 29.7
[5]; 25° C.
  k at 25° C.: 3.83e-09 s⁻¹
[1]; 10^-4 M in o-xylene, potassium t-butoxide 0.005M, 25° C., 100 µM
  half-life of chemiluminescence decay, base triggered: approximately 20 seconds
[1]; in methanol with KOH or in o-xylene with n-BuLi
  base triggered chemiluminescence: bright blue chemiluminescence with similar decay rates

## CC(C)(C)[Si](C)(C)Oc1ccc2c(c1)Oc1ccccc1C21OOC12C1CC3CC(C1)CC2C3 (centres unmarked) [Dioxetane 6b]
[8]
  triggering properties: triggering properties similar to dioxetanes 2a-c and 2e
[7]
  chemiluminescence in polar aprotic solvents: bright chemiluminescence

## COC1(c2ccc3cc(O[Si](c4ccccc4)(c4ccccc4)C(C)(C)C)ccc3c2)OOC12C1CC3CC(C1)CC2C3 (centres unmarked) [Dioxetane 2d]
[8]
  triggering properties: triggering properties similar to dioxetanes 2a-c and 2e
[7]
  chemiluminescence in polar aprotic solvents: bright chemiluminescence

## Oc1ccc2c(c1)Oc1ccccc1C21OOC12C1CC3CC(C1)CC2C3 (centres unmarked) [Dioxetane 6a]
[8]; [11]
  triggering properties: triggering properties similar to dioxetanes 2a-c and 2e
[1]
  base-induced decomposition, chemiluminescence: produced chemiluminescence at room temperature

## CCCCCCCCCCCCOS(=O)(=O)[O-].[Na+] [sodium lauryl sulfate (SDS), sodium lauryl sulfate]
[3]; added at maximum emission, Tris buffer, 1.5 μL enzyme
  effect of enzyme inhibitor on light emission of 2e/esterase reaction: irreversible decrease in the intensity

## CC(=O)Oc1ccc2ccccc2c1 [β-naphthyl acetate]
[3]
  effect of competing substrate on light intensity of 2e/esterase reaction: rapid decrease in light intensity was noted followed by restoration of the original intensity within less than one minute
  hydrolysis by the enzyme (UV spectroscopy): hydrolyzed by the enzyme in seconds

## COC1(c2ccc3ccccc3c2)OOC12C1CC3CC(C1)CC2C3 (centres unmarked) [Dioxetane 2a, 4-Methoxy-4-(2-naphthyl)spiro[1,2-dioxetane-3,2'-adamantane]]
[5]
  Ea (activation energy for decomposition): 29.7
[5]; 25° C.
  k at 25° C.: 3.17e-09 s⁻¹
